From the CheMixHub viscosity set
Where “and” joins values, the source holds several entries; their conditions need not be identical. Identical values can stand only once.

Key:
[1] = xn = mol fraction of the nth substance listed

COCC(C)OCC(C)O (centres undefined)
101.33 kPa
Details | viscosity [mPa·s]
298.15 K | 3.691
308.15 K | 2.765
318.15 K | 2.147

CC(=O)[O-].CC[n+]1ccn(C)c1
viscosity
Details | 293.15 K | 303.15 K | 308.15 K | 313.15 K | 318.15 K | 323.15 K
100 kPa | 203 mPa·s | 89.44 mPa·s | – | 53.45 mPa·s and 61.13 mPa·s | – | 34.58 mPa·s
101 kPa | 197 mPa·s | 93.62 mPa·s and 95.11 mPa·s and 102.4 mPa·s | 71.26 mPa·s | 57.72 mPa·s and 55.52 mPa·s and 60.42 mPa·s | 44.15 mPa·s | 35.74 mPa·s and 36.27 mPa·s and 38.97 mPa·s

CCCCCCCCCCC
viscosity
Details | 293.15 K | 298.15 K | 303.15 K | 308.15 K | 313.15 K | 318.15 K | 323.15 K
100 kPa | 1.187 mPa·s and 1.155 mPa·s | 1.074 mPa·s | 1.009 mPa·s and 0.993 mPa·s and 0.983 mPa·s | 0.935 mPa·s and 0.923 mPa·s and 0.912 mPa·s | 0.869 mPa·s and 0.861 mPa·s and 0.849 mPa·s | 0.812 mPa·s and 0.806 mPa·s and 0.792 mPa·s | 0.761 mPa·s and 0.756 mPa·s and 0.742 mPa·s
101 kPa | – | 1.075 mPa·s | – | 0.9373 mPa·s | – | 0.7937 mPa·s | –
101.33 kPa | – | 1.084 mPa·s and 1.084 mPa·s | – | – | – | – | –

CN1CCC[C@H]1c1cccnc1
viscosity
Details | 298.15 K | 303.15 K | 308.15 K | 318.05 K | 323.15 K
100 kPa | – | 3.6 mPa·s | – | 2.5 mPa·s | 2.195 mPa·s
101 kPa | 3.894 mPa·s (2×) and 3.894 mPa·s (2×) and 3.894 mPa·s | – | 3.156 mPa·s and 3.156 mPa·s | – | –
101.33 kPa | 3.894 mPa·s (2×) and 3.891 mPa·s | – | 3.156 mPa·s | – | 2.038 mPa·s

OCCCO
viscosity
Details | 293.15 K | 298.15 K | 303.15 K | 308.15 K | 313.15 K | 318.15 K | 323.15 K
100 kPa | 54.53 mPa·s (2×) and 53.1 mPa·s and 52.75 mPa·s | 42.89 mPa·s (2×) and 41.2 mPa·s | 34.62 mPa·s (2×) and 33.4 mPa·s and 32.51 mPa·s | 27.06 mPa·s | 21.85 mPa·s | 19.93 mPa·s | –
101 kPa | – | 42.1 mPa·s and 42.06 mPa·s | 33.7 mPa·s | – | 22.1 mPa·s and 20.29 mPa·s | 18.8 mPa·s and 16.88 mPa·s | 14.16 mPa·s
101.3 kPa | – | 41.77 mPa·s | 33.35 mPa·s | – | 22.39 mPa·s | 18.61 mPa·s | 15.66 mPa·s

OCCCl
viscosity
Details | 293.15 K | 298.15 K | 303.15 K | 308.15 K | 313.15 K
100 kPa | – | – | – | 2.234 mPa·s | 1.882 mPa·s
101.3 kPa | – | 2.973 mPa·s | 2.611 mPa·s | – | –
101.33 kPa | 3.588 mPa·s | 2.81 mPa·s and 2.985 mPa·s | 2.624 mPa·s and 2.448 mPa·s | 2.15 mPa·s | –

CC(=O)[O-].C[NH+]1C=CN=C1
Details | viscosity [mPa·s]
298.15 K, 100 kPa | 6.22

NC=O
viscosity
Details | 293.15 K | 298.15 K | 303.15 K | 308 K | 308.15 K | 313 K | 313.15 K | 318.15 K | 323.15 K
100 kPa | 3.734 mPa·s | 3.34 mPa·s | 2.964 mPa·s and 2.874 mPa·s | – | 2.612 mPa·s | – | 2.351 mPa·s | – | –
101 kPa | 3.656 mPa·s and 3.792 mPa·s | – | – | 2.648 mPa·s | – | 2.273 mPa·s | – | – | 2.01 mPa·s and 1.905 mPa·s and 1.966 mPa·s
101.3 kPa | – | 3.393 mPa·s | 2.8 mPa·s | – | 2.5 mPa·s | – | 2.2 mPa·s | – | 1.6 mPa·s
101.33 kPa | – | 3.217 mPa·s | 2.802 mPa·s and 2.84 mPa·s | – | 2.498 mPa·s and 2.59 mPa·s | – | 2.243 mPa·s | 2.032 mPa·s | 1.846 mPa·s

CCCC(O)CC (centres undefined)
Details | viscosity
298.15 K, 101.33 kPa | 4.34 mPa·s and 4.34 mPa·s

N#C[C-](C#N)C#N.OCC[n+]1ccccc1
101 kPa
Details | viscosity [mPa·s]
293.15 K | 136.6
298.15 K | 97.48
303.15 K | 71.78
308.15 K | 54.57
313.15 K | 42.31
318.15 K | 33.96
323.15 K | 27.78

C=CCO
viscosity [mPa·s]
Details | 298.15 K | 303.15 K | 313.15 K | 318.15 K | 323.15 K
101 kPa | – | 1.122 | 0.9208 | 0.8419 | 0.7703
101.33 kPa | 1.232 | – | – | – | –

CC(C)C#N
101 kPa
Details | viscosity
303.15 K | 0.461 mPa·s
308.15 K | 0.434 mPa·s and 0.433 mPa·s

CCOC(=O)CCC(=O)OCC
101.33 kPa
Details | viscosity [mPa·s]
298.15 K | 2.466
303.15 K | 2.196
308.15 K | 1.973
313.15 K | 1.779
318.15 K | 1.615

CCn1cc[n+](C)c1.[Cl][Al-]([Cl])([Cl])[Cl+][Al-]([Cl])([Cl])[Cl]
100 kPa
Details | viscosity [mPa·s]
293.15 K | 16.11
303.15 K | 12.41
313.15 K | 9.79
323.15 K | 7.943

CCCCCCCCCCC + CCCCCC
viscosity [mPa·s], [1]
Details | 293.15 K | 298.15 K | 303.15 K | 308.15 K | 313.15 K | 318.15 K | 323.15 K
100 kPa, x2 = 0.1021 | 1.036 | 0.958 | 0.89 | 0.828 | 0.773 | 0.724 | 0.68
100 kPa, x2 = 0.1994 | 0.934 | 0.867 | 0.804 | 0.751 | 0.704 | 0.662 | 0.623
100 kPa, x2 = 0.306 | 0.819 | 0.763 | 0.712 | 0.668 | 0.627 | 0.591 | 0.558
100 kPa, x2 = 0.4014 | 0.731 | 0.684 | 0.64 | 0.602 | 0.567 | 0.535 | 0.507
100 kPa, x2 = 0.4991 | 0.646 | 0.606 | 0.57 | 0.538 | 0.508 | 0.481 | 0.456
100 kPa, x2 = 0.601 | 0.563 | 0.53 | 0.5 | 0.473 | 0.449 | 0.426 | 0.406
100 kPa, x2 = 0.7028 | 0.489 | 0.462 | 0.438 | 0.415 | 0.395 | 0.377 | 0.36
100 kPa, x2 = 0.7989 | 0.424 | 0.402 | 0.383 | 0.365 | 0.348 | 0.333 | 0.319
100 kPa, x2 = 0.9 | 0.364 | 0.347 | 0.331 | 0.315 | 0.302 | 0.292 | 0.28
101.33 kPa, x2 = 0.1036 | – | 0.963 | – | – | – | – | –
101.33 kPa, x2 = 0.1988 | – | 0.876 | – | – | – | – | –
101.33 kPa, x2 = 0.2999 | – | 0.7746 | – | – | – | – | –
101.33 kPa, x2 = 0.4051 | – | 0.6933 | – | – | – | – | –
101.33 kPa, x2 = 0.5076 | – | 0.609 | – | – | – | – | –
101.33 kPa, x2 = 0.606 | – | 0.5391 | – | – | – | – | –
101.33 kPa, x2 = 0.7068 | – | 0.4643 | – | – | – | – | –
101.33 kPa, x2 = 0.8048 | – | 0.4044 | – | – | – | – | –
101.33 kPa, x2 = 0.9022 | – | 0.3552 | – | – | – | – | –

CCCCCCCCCCC + CCCCCCCC
[1], 298.15 K, 101.33 kPa
Details | viscosity [mPa·s]
x2 = 0.1011 | 1.012
x2 = 0.2077 | 0.9375
x2 = 0.3112 | 0.8621
x2 = 0.406 | 0.8112
x2 = 0.5073 | 0.7521
x2 = 0.6089 | 0.7019
x2 = 0.7063 | 0.645
x2 = 0.8047 | 0.6014
x2 = 0.9039 | 0.5503

CCCC(O)CC (centres undefined) + CO
[1], 298.15 K, 101.33 kPa
Details | viscosity [mPa·s]
x2 = 0.1014 | 4.298
x2 = 0.2029 | 3.945
x2 = 0.3111 | 3.363
x2 = 0.4188 | 2.737
x2 = 0.503 | 2.278
x2 = 0.6078 | 1.758
x2 = 0.7072 | 1.383
x2 = 0.7994 | 1.054
x2 = 0.9014 | 0.7655

NC=O + CCCCCO
[1], 298.15 K, 100 kPa
Details | viscosity [mPa·s]
x1 = 0.05608 | 3.38
x1 = 0.1142 | 3.39
x1 = 0.2182 | 3.48
x1 = 0.2483 | 3.57
x1 = 0.3487 | 3.73
x1 = 0.3776 | 3.77
x1 = 0.4665 | 3.98
x1 = 0.4951 | 4.02
x1 = 0.5681 | 4.15
x1 = 0.6207 | 4.23
x1 = 0.7099 | 4.32
x1 = 0.7533 | 4.33
x1 = 0.8001 | 4.23
x1 = 0.8518 | 4.07
x1 = 0.9349 | 3.69

CC(=O)[O-].[Na+] + O
viscosity [mPa·s], [1], 101.33 kPa
Details | 293.15 K | 298.15 K | 303.15 K
x1 = 0.0046 | 1.082 | 0.965 | 0.863
x1 = 0.0112 | 1.217 | 1.083 | 0.968
x1 = 0.0172 | 1.355 | 1.205 | 1.075
x1 = 0.0215 | 1.466 | 1.302 | 1.16
x1 = 0.0287 | 1.673 | 1.484 | 1.32
x1 = 0.0343 | 1.857 | 1.645 | 1.462
x1 = 0.0402 | 2.076 | 1.836 | 1.629
x1 = 0.0467 | 2.35 | 2.076 | 1.839
x1 = 0.0505 | 2.529 | 2.232 | 1.975
x1 = 0.0572 | 2.883 | 2.54 | 2.244
x1 = 0.0652 | 3.379 | 2.97 | 2.619
